Assay results: publication PMC10641831 (Journal of Medicinal Chemistry, 2023)
Read-outs that look alike come from different tables or passages of the source. Numbered stars: 1 amine (or outer) side, 2 acyl side, 3 side chain; on linkers, the order of the positions; unused ones are H or OH. Bridge positions count the residues as written; N and C are the ends. Square brackets hold non-standard residues; d marks the D form. Peptide text beside a SMILES is read from it. Phe(4-(Z)-phenylazo) = N[C@@H](Cc1ccc(/N=N\c2ccccc2)cc1)C(=O)O; AMPB(E) = O=C(c1ccc(/N=N/c2ccc(CN[*:1])cc2)cc1)[*:2]; X1 = O=C([C@H](Cc1ccc(/N=N/c2ccccc2)cc1)N[*:1])[*:2]; X2 = O=C(c1ccc(/N=N\c2ccc(CN[*:1])cc2)cc1)[*:2]

Key:
[1] = Photostationary state by analytical C18-RP-HPLC; type: physicochemical; settings: for PSS (E → Z): irradiation with 340 nm, HEPES buffer; for PSS (Z → E): irradiation with 420 nm (8–17) or 528 nm (18, 19)
Procedure: All photoprobes were investigated regarding their photophysical properties in aqueous buffer (pH 7.5), mimicking the conditions of the biological functional assays.
1.3.2. Photostationary States
Photostationary states (PSS) were measured on analytical C18-RP-HPLC (flow: 0.3 mL/min, solvent A: H2O (0.05% TFA), solvent B: MeCN). To determine the PSS of the photoswitches, the samples (in 0.1 mM in HEPES buffer + 1% DMSO, pH 7.5) were irradiated first with 340 nm to get the Z-isomer. Afterwards, the sample was irradiated with 420 nm (8-17) or 528 nm (18 and 19), respectively, to get back to the E-isomer. The samples were measured at the isosbestic points.

[2] = Thermal half-life of the Z-isomer (UV/vis, 96-well plate); type: physicochemical; settings: 25 °C; for t1/2 (thermal half-life, Figure S50): 50 µM in HEPES buffer + 0.25% DMSO, pre-irradiated with 340 nm; for t1/2 (thermal half-life Z to E): preirradiation with 340 nm, HEPES buffer pH 7.4
Description: All photoprobes were investigated regarding their photophysical properties in aqueous buffer (pH 7.5), mimicking the conditions of the biological functional assays. […] Upon irradiation with 340 nm light for 10 s and monitoring via UV/vis spectroscopy, all compounds could be switched to the Z-isomer, reaching the photostationary state (PSS). Compounds 8–17 containing azobenzene could be switched back to the E-isomer by irradiation at 420 nm for 60 s. Compounds 18 and 19 containing arylazopyrazole could be reverted to the E isomer by using 528 nm light. […] The PSS, when switched to the Z-isomer, was consistently good, with a PSS of 81–95%. […] The thermal half-lives of 10 and 12 were also measured at 37 °C, representing the temperature during the biological assays. As expected, the thermal half-lives decreased, however, the ratio of E and Z isomers remained stable during the incubation period of the biological assays (1 h).
Starting materials and commercial reagents were purchased from Acros, Alfa Aesar, Fisher, Fluka, Fluorochem, Merck (Sigma-Aldrich), TCI and VWR and were used without further purification. Solvents were used in p.a. quality or dried according to common procedures if necessary. All reactions with oxygen- or moisture-sensitive reagents were carried out in glassware that was dried before use by heating under vacuum. Dry nitrogen or argon was used for an inert gas atmosphere. All NMR spectra were measured at room temperature (20 °C) using a Bruker Avance 400 (400 MHz for ^1H and 101 MHz for ^13C) or a Bruker Avance 600 (600 MHz for ^1H and 151 MHz for ^13C) NMR spectrometer. All chemical shifts are reported in δ-scale as parts per million [ppm] (multiplicity, coupling constant J, number of protons) relative to the solvent residual peaks. Coupling constants J are given in hertz [Hz]. Abbreviations used for signal multiplicity: ^1H NMR: s = singlet, d = doublet, dd = doublet of doublets, ddd = doublet of doublets of doublets, dt = doublet of triplets, t = triplet, td = triplet of doublets, q = quartet, and m = multiplet. All mass spectra were recorded on an Agilent Q-TOF 6540 UHD, Finnigan MAT SSQ 710 A, Jeol AccuTOF GCX or ThermoQuest Finnigan TSQ 7000 spectrometer. Absorption spectra were recorded on an UV/vis Agilent Cary 50 spectrometer. Thermal half-lives were measured on a 96-well plate in a Thermo Scientific Multiskan Spectrum. Analytical TLC was performed on silica gel-coated alumina plates (MN precoated TLC-sheets ALUGRAM Xtra SIL G/UV254). Visualization was done using UV light (254 or 366 nm) or staining with ninhydrin solution. Column chromatography was performed on a Biotage Isolera One automated flash purification system with a UV/vis detector. Analytical RP-HPLC was carried out on an Agilent 1220 Infinity LC System (column: P/No 00F-4251-B0, Phenomenex Luna 3 μm C18(2) 100 Å, LC column 150 mm × 2.0 mm). Purification by preparative HPLC was conducted on a preparative HPLC Agilent 1260 Infinity LC System [column: P/No 00G-4253-P0-AX, Phenomenex Luna 10 μm C18(2) 100 Å, LC column 250 mm × 21.2 mm]. The eluent systems were used as specified. After the purification process, solvents were removed by lyophilization. Switching experiments were done with a 340 nm LED (SSC VIOSYS CUD4AF1B, 500 mA, 55 mW), 420 nm LED (ILH-XC01-S410-SC211-WIR200, 800 mA, 440 mW), and 528 nm LED (OSRAM Oslon SSL 80 green, 500 mA, 34 mW). Purity of all photoprobes was >95% as determined by analytical RP-HPLC at 220 nm in DMSO.
1.3.4. Thermal Half-lives
Thermal half-lives were measured in a 96-well plate in a Thermo Scientific Multiskan® Spectrum at 25 °C (and at 37 °C for compounds 10 and 12). The solutions (50 µM in HEPES buffer + 0.25% DMSO) were pre-irradiated with 340 nm. The absorption at 335 nm was measured every 3 h. The data was analyzed using Origin 2021.
0,7 1/2 ExpDec1 Fit of Sheet1 B
Modell ExpDec1 0,35 Modell ExpDec1
0,6 Gleichung y = A 1 *e xp (-x/t1 ) + y0 Gleichung y = A 1 *e xp (-x/t1 ) + y0 […]

hOTR = target: T1, hOTR (Homo sapiens, UniProt P30559); assay: IP-One accumulation assay, agonist function, HEK293 cells expressing hOTR; type: cell-based; settings: for Emax: HEK293, relative to the effect of OT, read-out: OTR Emax ± SEM; for OTR E/Z ratio EC50: ratio of EC50 of E- and Z-isomer; for decrease in potency compared to OT at OTR: EC50 vs OT
T1 construct: expressed in transfected cells
T1 sequence (P30559 1-389): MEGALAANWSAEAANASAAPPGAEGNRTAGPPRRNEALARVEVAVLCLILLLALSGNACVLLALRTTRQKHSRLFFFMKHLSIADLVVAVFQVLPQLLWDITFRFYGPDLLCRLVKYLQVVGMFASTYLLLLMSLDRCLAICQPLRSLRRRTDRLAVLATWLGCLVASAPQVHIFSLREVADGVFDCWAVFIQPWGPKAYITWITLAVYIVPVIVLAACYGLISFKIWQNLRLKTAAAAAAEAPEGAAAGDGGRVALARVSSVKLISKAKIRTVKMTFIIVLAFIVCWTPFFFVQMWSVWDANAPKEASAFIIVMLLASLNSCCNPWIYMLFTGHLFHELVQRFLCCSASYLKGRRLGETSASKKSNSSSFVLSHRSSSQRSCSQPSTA

[3] = IP-One, stable HEK293 hOTR, E = thermal equilibrium, Z = PSS after 340 nm, read-out: OTR EC50 ± SEM

PSS (E → Z) [1] | t1/2 (thermal half-life, Figure S50) [2] | t1/2 (thermal half-life Z to E) [2] | Emax (hOTR) | decrease in potency compared to OT at OTR (hOTR) | agonist character at OTR (hOTR; IP-One assay) | EC50 (hOTR; IP-One, both isomers, read-out: EC50 at OTR) | EC50 (hOTR; supplementary CSV, read-out: activity E-isomer OTR) | EC50 (hOTR; supplementary CSV, read-out: activity Z-isomer OTR) | Molecule | PSS (Z → E) [1] | EC50 (hOTR; [3]) | OTR E/Z ratio EC50 (hOTR)
– | – | – | 89 ± 1% | – | – | – | – | – | CC[C@H](C)[C@@H]1NC(=O)[C@H](Cc2ccc(O)cc2)NC(=O)[C@@H](N)CSSC[C@@H](C(=O)N[C@@H](Cc2ccc(/N=N/c3ccccc3)cc2)C(=O)N[C@@H](CC(C)C)C(=O)NCC(N)=O)NC(=O)[C@H](CC(N)=O)NC(=O)[C@H](CCC(N)=O)NC1=O [E-9] (H-CYIQNC[X1]LG-NH2; disulfide 1-6) | – | 346 ± 30 nM | 2.5
– | – | – | 90 ± 1% | 55 fold | – | – | – | – | CC[C@H](C)[C@@H]1NC(=O)[C@H](Cc2ccc(O)cc2)NC(=O)[C@@H](N)CSSC[C@@H](C(=O)N[C@@H](Cc2ccc(/N=N\c3ccccc3)cc2)C(=O)N[C@@H](CC(C)C)C(=O)NCC(N)=O)NC(=O)[C@H](CC(N)=O)NC(=O)[C@H](CCC(N)=O)NC1=O [Z-9] (H-CYIQNC[Phe(4-(Z)-phenylazo)]LG-NH2; disulfide 1-6) | – | 136 ± 6 nM | 2.5
93% | 1310 h | 1310 h | – | – | – | – | – | – | [AzpC(m)^1,Dap^6]-VP [compound 19] | 87% | – | –
94% | 132 h | 132 h | 35 to 45% | > 1400 fold | partial agonism | 3000 to 4000 nM | 4500 ± 1010 nM | 3500 ± 1890 nM | CC[C@H](C)[C@@H]1NC(=O)[C@H](Cc2ccc(/N=N/c3ccccc3)cc2)NC(=O)[C@@H](N)CSSC[C@@H](C(=O)N2CCC[C@H]2C(=O)N[C@@H](CC(C)C)C(=O)NCC(N)=O)NC(=O)[C@H](CC(N)=O)NC(=O)[C@H](CCC(N)=O)NC1=O [compound 8, [AzbS^2]-OT] (H-C[X1]IQNCPLG-NH2; disulfide 1-6) | – | – | –

Molecule | PSS (E → Z) [1] | t1/2 (thermal half-life, Figure S50) [2] | t1/2 (thermal half-life Z to E) [2] | Emax (hOTR) | decrease in potency compared to OT at OTR (hOTR) | agonist character at OTR (hOTR; IP-One assay) | EC50 (hOTR; IP-One, both isomers, read-out: EC50 at OTR) | EC50 (hOTR; supplementary CSV, read-out: activity E-isomer OTR) | EC50 (hOTR; supplementary CSV, read-out: activity Z-isomer OTR) | PSS (Z → E) [1] | EC50 (hOTR; [3]) | OTR E/Z ratio EC50 (hOTR)
[AzbC(m,o)^1,Dap^6]-VP [compound 16] | 89% | 74.4 h | 74.4 h | – | – | – | – | – | – | 83% | – | –
CC[C@H](C)[C@@H]1NC(=O)[C@H](Cc2ccc(O)cc2)NC(=O)[C@@H](N)CSSC[C@@H](C(=O)NCc2ccc(/N=N/c3ccc(C(=O)N[C@@H](CC(C)C)C(=O)NCC(N)=O)cc3)cc2)NC(=O)[C@H](CC(N)=O)NC(=O)[C@H](CCC(N)=O)NC1=O [E-11] (H-CYIQNC[AMPB(E)]LG-NH2; disulfide 1-6) | – | – | – | 75 ± 1% | – | – | – | – | – | – | 263 ± 21 nM | 2.0
CC[C@H](C)[C@@H]1NC(=O)[C@H](Cc2ccc(O)cc2)NC(=O)[C@@H](N)CSSC[C@@H](C(=O)NCc2ccc(/N=N\c3ccc(C(=O)N[C@@H](CC(C)C)C(=O)NCC(N)=O)cc3)cc2)NC(=O)[C@H](CC(N)=O)NC(=O)[C@H](CCC(N)=O)NC1=O [Z-11] (H-CYIQNC[X2]LG-NH2; disulfide 1-6) | – | – | – | 86 ± 1% | 55 fold | – | – | – | – | – | 134 ± 17 nM | 2.0
